According to article PMC11277083, “A Natural Bioactive Peptide from Pinctada fucata Pearls Can Be Used as a Potential Inhibitor of the Interaction between SARS-CoV-2 and ACE2 against COVID-19” (International Journal of Molecular Sciences, 2024):
Where two headings read alike, the source gives them in different places. Where no end group is shown, it is not given here.

Assays:
[1] = system: HEK293T; details: 394.10 μM; cited from earlier work
[2] = system: ACE2; details: reduces the affinity between spiny proteins and ACE2; cited from earlier work
[3] = biological target: ACE2; details: compared with KKCH-ACE2 affinity; cited from earlier work
[4] = system: virus S1 protein and the ACE2 receptor; details: cited from earlier work
[5] = biological target: T1, ACE2 protein (Homo sapiens, UniProt Q9BYF1); assay: SPR affinity for ACE2 (Biacore T200, CM5 chip); details: ACE2 on CM5 chip, 1:1 Langmuir binding model, read-out: association (Ka)
T1 construct: purchased CUSABIO (Wuhan, China) CSB-MP866317HU
Description: The ACE2 protein (no. CSB-MP866317HU) was a recombinant human protein purchased from CUSABIO (Wuhan, China). […] The ACE2 protein was diluted to 50 μg/mL with sodium acetate at pH 4.0. The protein was fixed on the CM5 chip at a flow rate of 10 μL/min, and the coupling time was 420 s. […] Biacore T200 Control software (v.2.0) was used to collect sample data, and the 1:1 Langmuir binding model was fitted globally to determine the final KD. The binding affinity KD could be calculated from dissociation (Kd)/association (Ka).

[6] = biological target: T2, S1-RBD/ACE2 (Homo sapiens, UniProt Q9BYF1); assay: ELISA inhibition of S1-RBD binding to ACE2 (RayBio COVID-19 Spike ACE2 binding assay kit II); set-up: species or system SARS-CoV-2 (S1-RBD); details: 2 h, room temperature, 450 nm, repeated twice in each group, read-out: inhibitory rate on S1-RBD/ACE2
T2 construct: purchased RayBio (RayBiotech)
Description: The RayBio COVID-19 Spike ACE2 binding assay kit II (no. QHD43416) was used to detect the inhibitory effect of the KKCH peptides on the binding of the RBD protein and the ACE2 receptor protein. Using a PBS solution, KKCH was diluted to 10 μM, 90 μM, 180 μM, 360 μM, 720 μM, and 1440 μM. Then, 125 μL of test reagent was obtained by mixing different concentrations of the 10 μL KKCH peptide solutions with Fc-labeled recombinant S1-RBD protein solution. Next, 100 μL of test reagent was added to each well of a 96-well plate coated with the recombinant ACE2 protein, repeated twice in each group, and incubated at room temperature for 2 h. The plates were washed four times with a wash buffer to remove unbound S1-RBD proteins. Then, 100 μL of enzyme-labeled Anti-IgG was added to each well and incubated for 1 h, 100 μL of TMB was added at room temperature and incubated for 0.5 h, and 50 μL […] the reaction. The yellow intensity was measured at 450 nm, and the inhibition rate of the KKCH peptide was calculated.

[7] = system: BEAS-2B cells
[8] = system: HEK293T cells; details: for survival rate of HEK293T cells: 2 h
[9] = system: Vero cells; details: for survival rate of Vero cells: 2 h
[10] = system: SARS-CoV-2 live virus; details: 2 h

T2 sequence (Q9BYF1 18-740): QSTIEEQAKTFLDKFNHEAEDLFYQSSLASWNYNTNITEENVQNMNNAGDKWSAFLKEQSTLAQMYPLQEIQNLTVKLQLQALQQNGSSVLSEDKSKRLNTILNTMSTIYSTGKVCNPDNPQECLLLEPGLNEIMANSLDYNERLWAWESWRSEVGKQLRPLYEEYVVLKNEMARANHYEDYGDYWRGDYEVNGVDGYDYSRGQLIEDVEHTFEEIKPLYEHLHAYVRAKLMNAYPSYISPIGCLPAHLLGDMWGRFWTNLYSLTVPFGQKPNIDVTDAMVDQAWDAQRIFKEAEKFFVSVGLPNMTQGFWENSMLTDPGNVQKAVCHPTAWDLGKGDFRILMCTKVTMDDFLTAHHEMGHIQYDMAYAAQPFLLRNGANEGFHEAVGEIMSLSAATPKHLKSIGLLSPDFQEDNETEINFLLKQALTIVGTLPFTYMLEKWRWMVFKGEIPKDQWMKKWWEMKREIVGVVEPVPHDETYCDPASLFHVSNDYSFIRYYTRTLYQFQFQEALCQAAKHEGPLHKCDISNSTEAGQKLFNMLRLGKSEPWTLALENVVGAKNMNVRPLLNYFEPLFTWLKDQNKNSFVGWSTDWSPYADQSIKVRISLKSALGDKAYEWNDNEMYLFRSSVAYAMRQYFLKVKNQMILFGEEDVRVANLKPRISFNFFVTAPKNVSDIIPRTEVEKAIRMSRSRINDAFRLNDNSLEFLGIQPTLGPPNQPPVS
T1 sequence (Q9BYF1 18-805): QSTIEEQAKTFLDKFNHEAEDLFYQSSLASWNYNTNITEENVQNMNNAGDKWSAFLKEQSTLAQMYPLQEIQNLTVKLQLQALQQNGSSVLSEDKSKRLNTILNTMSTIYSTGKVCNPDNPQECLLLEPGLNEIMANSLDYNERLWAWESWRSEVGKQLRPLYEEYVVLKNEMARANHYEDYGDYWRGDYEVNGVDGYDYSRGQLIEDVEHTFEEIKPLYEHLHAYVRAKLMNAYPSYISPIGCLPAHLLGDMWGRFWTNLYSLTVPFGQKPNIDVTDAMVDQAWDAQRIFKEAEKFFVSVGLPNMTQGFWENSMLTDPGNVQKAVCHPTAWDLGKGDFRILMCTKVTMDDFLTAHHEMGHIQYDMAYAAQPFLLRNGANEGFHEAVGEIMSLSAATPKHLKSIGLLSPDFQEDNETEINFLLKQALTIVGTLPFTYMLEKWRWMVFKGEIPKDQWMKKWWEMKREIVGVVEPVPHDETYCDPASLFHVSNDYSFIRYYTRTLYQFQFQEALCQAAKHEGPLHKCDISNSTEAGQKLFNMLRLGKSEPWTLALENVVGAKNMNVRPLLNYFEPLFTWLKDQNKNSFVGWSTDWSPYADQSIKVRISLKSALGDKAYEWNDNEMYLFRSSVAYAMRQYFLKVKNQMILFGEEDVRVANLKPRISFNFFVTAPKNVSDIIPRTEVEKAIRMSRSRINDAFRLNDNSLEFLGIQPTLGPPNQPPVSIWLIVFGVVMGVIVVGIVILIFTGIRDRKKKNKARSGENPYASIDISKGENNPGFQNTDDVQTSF

## thanatin: peptide (thanatin) derived from insects
[1]
  cytotoxicity to HEK293T: no obvious cytotoxicity

## CCN(CC)CCCC(C)Nc1ccnc2cc(Cl)ccc12 (stereo not shown) [chloroquine]
[2]
  effect on ACE2: can prevent the glycosylation of ACE2

## tuftsin
[3]
  Kd: 460 µM

## C[C@@H]1C[C@H]2[C@@H]3CCC4=CC(=O)C=C[C@]4(C)[C@@]3(F)[C@@H](O)C[C@]2(C)[C@@]1(O)C(=O)CO [dexamethasone]
[3]
  Kd: 9.03 µM

## O=c1c(-c2ccc(O)cc2)coc2c([C@@H]3O[C@H](CO)[C@@H](O)[C@H](O)[C@H]3O)c(O)ccc12 [puerarin]
[3]
  Kd: 670 µM
[4]
  reduction of RU values of S1 protein and ACE2: 20 units

## KKCHFWPFPW [KKCH]
[5]
  kon: 154000 ± 1.5e+09 M⁻¹ s⁻¹
[6]; 10 μM
  inhibition at 10 µM: 6.8%
[6]; 90 μM
  inhibition at 90 µM: 10.9%
[6]; 180 μM
  inhibition at 180 µM: 17%
[6]; 360 μM
  inhibition at 360 µM: 34%
[6]; 720 μM
  inhibition at 720 µM: 89.7%
[6]; 1440 μM
  inhibition at 1440 µM: 94.1%
[7]; 40 µM
  viability rate of BEAS-2B cells: 99.80%
[7]; 80 µM
  viability rate of BEAS-2B cells: 99.77%
[7]; 160 µM
  viability rate of BEAS-2B cells: 99.37%
[7]; 240 µM
  viability rate of BEAS-2B cells: 99.63%
[7]; 320 µM
  viability rate of BEAS-2B cells: 98.07%
[7]; 400 µM
  viability rate of BEAS-2B cells: 95.87%
[7]; 480 µM
  viability rate of BEAS-2B cells: 82.95%
[7]; less than 480 μM, p > 0.05
  effect on BEAS-2B cell viability (significance): no significant effect on cell viability
[8]; 40 μM
  survival rate of HEK293T cells: 98.28%
[8]; 80 μM
  survival rate of HEK293T cells: 95.28%
[8]; 160 μM
  survival rate of HEK293T cells: 94.74%
[8]; 240 μM
  survival rate of HEK293T cells: 92.39%
[8]; 320 μM
  survival rate of HEK293T cells: 90.77%
[8]; 400 μM
  survival rate of HEK293T cells: 92.69%
[8]; 480 μM
  survival rate of HEK293T cells: 81.66%
[8]; less than 480 μM, p > 0.05
  effect on HEK293T cell viability (significance): no significant effect on cell viability
[9]; 40 to 400 µM, p > 0.05 vs control
  toxicity to Vero cells (significance): not toxic to the cells in this range
[9]; 40 μM
  survival rate of Vero cells: 97.81%
[9]; 80 μM
  survival rate of Vero cells: 96.97%
[9]; 160 μM
  survival rate of Vero cells: 98.23%
[9]; 240 μM
  survival rate of Vero cells: 96.21%
[9]; 320 μM
  survival rate of Vero cells: 95.85%
[9]; 400 μM
  survival rate of Vero cells: 92.64%
[9]; 480 μM
  survival rate of Vero cells: 90.44%
[10]; 10 μM
  inhibitory rate against SARS-CoV-2: 4.97%
[10]; 25 μM
  inhibitory rate against SARS-CoV-2: 11.32%
[10]; 50 μM
  inhibitory rate against SARS-CoV-2: 15.40%
[10]; 100 μM
  inhibitory rate against SARS-CoV-2: 17.91%
[10]; 150 μM
  inhibitory rate against SARS-CoV-2: 22.41%
[10]; 200 μM
  inhibitory rate against SARS-CoV-2: 32.01%
[10]; 350 μM
  inhibitory rate against SARS-CoV-2: 38.31%
[10]; 450 μM
  inhibitory rate against SARS-CoV-2: 54.80%

## C[C@@]1(C(=O)O)CC[C@]2(C)CC[C@]3(C)C4=CC(=O)c5c(cc(O)c(O)c5C=O)[C@]4(C)CC[C@@]3(C)[C@@H]2C1 [demethylzeylasteral]
[3]
  Kd: 1.74 µM
